Reference: patent US11214594B2, “Antimicrobial peptide having synergistic antibacterial effect with antibiotics on multidrug resistant bacteria, and use thereof” (priority 2016, dated 2022)
In brackets after ≈: the same amount, converted by molar mass. Like-named read-outs stand apart in the source and are kept apart here. Where a SMILES comes first, the peptide text is derived from it.

What was measured:
B. subtilis = assay: microbe, parasite or virus in culture; assay type: cell-based, Bacillus subtilis
Method in brief: (§1)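 Broth microdilution in MH medium: bacterial strains diluted to 2×10^6 CFU were mixed with equal volumes of peptide serially diluted twofold in MH medium.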

A. baumannii [1] = assay: MIC of antibiotic during combined treatment with antimicrobial peptide; assay type: cell-based, Acinetobacter baumannii; conditions: for Antibiotic MIC, Erythromycin / Antibiotic MIC, Linezolid / Antibiotic MIC, Vancomycin: A. baumannii
Method in brief: (§2)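 Read-out is the MIC of each combined solution, obtained from MH-medium dilutions of antibiotic added well by well, with a reversed-condition run as well.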

E. coli [2] = assay: as above; assay type: cell-based, Escherichia coli; conditions: for Antibiotic MIC, Erythromycin / Antibiotic MIC, Linezolid / Antibiotic MIC, Vancomycin: E. coli
Method in brief: as §2

MDRST 8009 = assay type: cell-based, Salmonella typhimurium; conditions: agent alone
Method in brief: as §1

MDREC 1229 [3] = assay type: cell-based, Escherichia coli
Method in brief: (§3)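 Strains in MH medium at 2×10^6 CFU/ml were mixed with peptide diluted stepwise (2:1) from its MIC, then antibiotic dilutions in MH medium were added to give the antibiotic MIC. The reversed set-up, peptide titrated against fixed antibiotic, gave the peptide MIC.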

E. coli [4] = assay type: cell-based, Escherichia coli; conditions: E. coli
Method in brief: as §3

S. epidermidis = assay: microbe, parasite or virus in culture; assay type: cell-based, Staphylococcus epidermidis
Method in brief: as §1

MDREC 1229 [5] = assay: microbe, parasite or virus in culture; assay type: cell-based, Escherichia coli
Method in brief: as §1

E. coli [6] = assay: microbe, parasite or virus in culture; assay type: cell-based, Escherichia coli; conditions: 16 h
Method in brief: as §1

S. aureus = assay: microbe, parasite or virus in culture; assay type: cell-based, Staphylococcus aureus
Method in brief: as §1

MDRAB 12035 [7] = assay: MIC of antimicrobial peptide during combined treatment with antibiotic; assay type: cell-based, Acinetobacter baumannii
Method in brief: as §3

A. baumannii [8] = assay: as above; assay type: cell-based, Acinetobacter baumannii
Method in brief: as §3

MDRAB 12035 [9] = assay: microbe, parasite or virus in culture; assay type: cell-based, Acinetobacter baumannii
Method in brief: as §1

A. baumannii [10] = assay: microbe, parasite or virus in culture; assay type: cell-based, Acinetobacter baumannii
Method in brief: as §1

P. aeruginosa = assay: microbe, parasite or virus in culture; assay type: cell-based, Pseudomonas aeruginosa
Method in brief: as §1

[11] = combined with peptide at 1 μg/ml
[12] = combined with peptide at 2 μg/ml
[13] = combined with peptide at 4 μg/ml
[14] = combined with peptide at 6 μg/ml
[15] = combined with peptide at 8 μg/ml
[16] = combined with peptide at 16 μg/ml
[17] = combined with peptide at 32 μg/ml
[18] = combined with peptide at 64 μg/ml
[19] = with Erythromycin […] (Conc./MIC 1)
[20] = erythromycin 4 μg/ml (Conc./MIC 1/8)
[21] = erythromycin 8 μg/ml (Conc./MIC 1/4)
[22] = erythromycin 16 μg/ml (Conc./MIC 1/2)
[23] = erythromycin 32 μg/ml (Conc./MIC 1)
[24] = vancomycin 512 μg/ml (Conc./MIC 1/2)
[25] = vancomycin 1024 μg/ml (Conc./MIC 1)

SMILES: CC[C@H](C)[C@H](NC(=O)[C@H](CCCCN)NC(=O)[C@H](Cc1c[nH]c2ccccc12)NC(=O)[C@@H](N)CCCNC(=N)N)C(=O)N[C@@H](Cc1ccccc1)C(=O)N[C@@H](CCCCN)C(=O)N[C@@H](CCCCN)C(=O)N[C@H](C(=O)N1CCC[C@H]1C(=O)N[C@@H](CCCCN)C(=O)N[C@@H](Cc1ccccc1)C(=O)N[C@@H](CC(C)C)C(=O)N[C@@H](Cc1c[nH]cn1)C(=O)N[C@@H](CO)C(=O)N[C@@H](Cc1c[nH]c2ccccc12)C(=O)N[C@@H](CCCCN)C(=O)N[C@@H](CCCCN)C(=O)N[C@@H](Cc1ccccc1)C(N)=O)[C@@H](C)CC [PapMA-3, RWK IFK KIP KFL HSW KKF-NH2] (H-RWKIFKKIPKFLHSWKKF-NH2; N-terminus assumed)
- Minimal inhibitory concentration MIC (B. subtilis): >128 µg/mL
- Synergistic effect of antibacterial activity with existing antibiotics compared with PapMA-1 (A. baumannii [1]; A. baumannii and MDRAB 12035): higher level than the PapMA-1 peptide
- Antibiotic MIC, Erythromycin (A. baumannii [1]; [11]): 32 µg/mL
- Antibiotic MIC, Linezolid (A. baumannii [1]; [11]): >128 µg/mL
- Antibiotic MIC, Vancomycin (A. baumannii [1]; [11]): >128 µg/mL
- Antibiotic MIC, Erythromycin (A. baumannii [1]; [12]): 16 µg/mL
- Antibiotic MIC, Linezolid (A. baumannii [1]; [12]): 64 µg/mL
- Antibiotic MIC, Vancomycin (A. baumannii [1]; [12]): 128 µg/mL
- Antibiotic MIC, Erythromycin (A. baumannii [1]; [13]): 8 µg/mL
- Antibiotic MIC, Linezolid (A. baumannii [1]; [13]): 32 µg/mL
- Antibiotic MIC, Vancomycin (A. baumannii [1]; [13]): 64 µg/mL
- Antibiotic MIC, Erythromycin (A. baumannii [1]; [14]): 1 µg/mL
- Antibiotic MIC, Linezolid (A. baumannii [1]; [14]): 16 µg/mL
- Antibiotic MIC, Vancomycin (A. baumannii [1]; [14]): 32 µg/mL
- Antibiotic MIC, Erythromycin (A. baumannii [1]; [15]): 0.125 µg/mL
- Antibiotic MIC, Linezolid (A. baumannii [1]; [15]): 8 µg/mL
- Antibiotic MIC, Vancomycin (A. baumannii [1]; [15]): 32 µg/mL
- Antibiotic MIC, Erythromycin (A. baumannii [1]; [16]): 0 µg/mL
- Antibiotic MIC, Linezolid (A. baumannii [1]; [16]): 0 µg/mL
- Antibiotic MIC, Vancomycin (A. baumannii [1]; [16]): 0 µg/mL
- Antibiotic MIC, Erythromycin (A. baumannii [1]; [17]): 0 µg/mL
- Antibiotic MIC, Linezolid (A. baumannii [1]; [17]): 0 µg/mL
- Antibiotic MIC, Vancomycin (A. baumannii [1]; [17]): 0 µg/mL
- Antibiotic MIC, Erythromycin (A. baumannii [1]; [18]): 0 µg/mL
- Antibiotic MIC, Linezolid (A. baumannii [1]; [18]): 0 µg/mL
- Antibiotic MIC, Vancomycin (A. baumannii [1]; [18]): 0 µg/mL
- Synergistic effect of antibacterial activity with existing antibiotics compared with PapMA-1 (E. coli [2]; E. coli and MDREC1229): level similar to that of the PapMA-1 peptide
- Antibiotic MIC, Erythromycin (E. coli [2]; erythromycin combined with peptide at 1 μg/ml): 64 µg/mL
- Antibiotic MIC, Erythromycin (E. coli [2]; erythromycin combined with peptide at 2 μg/ml): 32 µg/mL
- Antibiotic MIC, Erythromycin (E. coli [2]; erythromycin combined with peptide at 4 μg/ml): 16 µg/mL
- Antibiotic MIC, Erythromycin (E. coli [2]; erythromycin combined with peptide at 6 μg/ml): 4 µg/mL
- Antibiotic MIC, Erythromycin (E. coli [2]; erythromycin combined with peptide at 8 μg/ml): 1 µg/mL
- Antibiotic MIC, Erythromycin (E. coli [2]; erythromycin combined with peptide at 16 μg/ml): 0.125 µg/mL
- Antibiotic MIC, Erythromycin (E. coli [2]; erythromycin combined with peptide at 32 μg/ml): 0 µg/mL
- Antibiotic MIC, Erythromycin (E. coli [2]; erythromycin combined with peptide at 64 μg/ml): 0 µg/mL
- Antibiotic MIC, Linezolid (E. coli [2]; linezolid combined with peptide at 1 μg/ml): 128 µg/mL
- Antibiotic MIC, Linezolid (E. coli [2]; linezolid combined with peptide at 2 μg/ml): 64 µg/mL
- Antibiotic MIC, Linezolid (E. coli [2]; linezolid combined with peptide at 4 μg/ml): 32 µg/mL
- Antibiotic MIC, Linezolid (E. coli [2]; linezolid combined with peptide at 6 μg/ml): 32 µg/mL
- Antibiotic MIC, Linezolid (E. coli [2]; linezolid combined with peptide at 8 μg/ml): 16 µg/mL
- Antibiotic MIC, Linezolid (E. coli [2]; linezolid combined with peptide at 16 μg/ml): 2 µg/mL
- Antibiotic MIC, Linezolid (E. coli [2]; linezolid combined with peptide at 32 μg/ml): 0 µg/mL
- Antibiotic MIC, Linezolid (E. coli [2]; linezolid combined with peptide at 64 μg/ml): 0 µg/mL
- Antibiotic MIC, Vancomycin (E. coli [2]; vancomycin combined with peptide at 1 μg/ml): >128 µg/mL
- Antibiotic MIC, Vancomycin (E. coli [2]; vancomycin combined with peptide at 2 μg/ml): >128 µg/mL
- Antibiotic MIC, Vancomycin (E. coli [2]; vancomycin combined with peptide at 4 μg/ml): >128 µg/mL
- Antibiotic MIC, Vancomycin (E. coli [2]; vancomycin combined with peptide at 6 μg/ml): 128 µg/mL
- Antibiotic MIC, Vancomycin (E. coli [2]; vancomycin combined with peptide at 8 μg/ml): 32 µg/mL
- Antibiotic MIC, Vancomycin (E. coli [2]; vancomycin combined with peptide at 16 μg/ml): 8 µg/mL
- Antibiotic MIC, Vancomycin (E. coli [2]; vancomycin combined with peptide at 32 μg/ml): 0 µg/mL
- Antibiotic MIC, Vancomycin (E. coli [2]; vancomycin combined with peptide at 64 μg/ml): 0 µg/mL
- Minimal inhibitory concentration MIC (MDRST 8009): 64 µg/mL (≈ 26.5 µM)
- Peptide MIC (MDREC 1229 [3]; [19]): 0 µg/mL
- Peptide MIC (MDREC 1229 [3]; with Linezolid 512 μg/ml (Conc./MIC 1)): 0 µg/mL
- Peptide MIC (E. coli [4]; [19]): 0 µg/mL
- Peptide MIC (E. coli [4]; with Linezolid […] (Conc./MIC 1)): 0 µg/mL
- Peptide MIC (E. coli [4]; with Vancomycin 1024 μg/ml (Conc./MIC 1)): 0 µg/mL
- Minimal inhibitory concentration MIC (S. epidermidis): >128 µg/mL
- Minimal inhibitory concentration MIC (MDREC 1229 [5]): 32 µg/mL (≈ 13.2 µM)
- Minimal inhibitory concentration MIC (E. coli [6]): 32 µg/mL (≈ 13.2 µM)
- Minimal inhibitory concentration MIC (S. aureus): >128 µg/mL
- Peptide MIC during treatment with erythromycin (MDRAB 12035 [7]; [20]): 4 µg/mL
- Peptide MIC during treatment with erythromycin (MDRAB 12035 [7]; [21]): 4 µg/mL
- Peptide MIC during treatment with erythromycin (MDRAB 12035 [7]; [22]): 2 µg/mL
- Peptide MIC during treatment with erythromycin (MDRAB 12035 [7]; [23]): 0 µg/mL
- Peptide MIC during treatment with linezolid (MDRAB 12035 [7]; linezolid 64 μg/ml (Conc./MIC 1/8)): 4 µg/mL
- Peptide MIC during treatment with linezolid (MDRAB 12035 [7]; linezolid 512 μg/ml (Conc./MIC 1)): 0 µg/mL
- Peptide MIC during treatment with linezolid (MDRAB 12035 [7]; linezolid […] (Conc./MIC 1/2)): 1 µg/mL
- Peptide MIC during treatment with linezolid (MDRAB 12035 [7]; linezolid […] (Conc./MIC 1/4)): 2 µg/mL
- Peptide MIC during treatment with vancomycin (MDRAB 12035 [7]; [24]): 2 µg/mL
- Peptide MIC during treatment with vancomycin (MDRAB 12035 [7]; [25]): 0.25 µg/mL
- Peptide MIC during treatment with vancomycin (MDRAB 12035 [7]; vancomycin […] (Conc./MIC 1/4)): 2 µg/mL
- Peptide MIC during treatment with vancomycin (MDRAB 12035 [7]; vancomycin […] (Conc./MIC 1/8)): 4 µg/mL
- Peptide MIC during treatment with antibiotic (A. baumannii [8]; [20]): 4 µg/mL
- Peptide MIC during treatment with antibiotic (A. baumannii [8]; [21]): 4 µg/mL
- Peptide MIC during treatment with antibiotic (A. baumannii [8]; [22]): 2 µg/mL
- Peptide MIC during treatment with antibiotic (A. baumannii [8]; [23]): 0 µg/mL
- Peptide MIC during treatment with antibiotic (A. baumannii [8]; linezolid 32 μg/ml (Conc./MIC 1/8)): 4 µg/mL
- Peptide MIC during treatment with antibiotic (A. baumannii [8]; linezolid 64 μg/ml (Conc./MIC 1/4)): 2 µg/mL
- Peptide MIC during treatment with antibiotic (A. baumannii [8]; linezolid […] (Conc./MIC 1)): 0 µg/mL
- Peptide MIC during treatment with antibiotic (A. baumannii [8]; linezolid […] (Conc./MIC 1/2)): 1 µg/mL
- Peptide MIC during treatment with antibiotic (A. baumannii [8]; [24]): 0.25 µg/mL
- Peptide MIC during treatment with antibiotic (A. baumannii [8]; [25]): 0 µg/mL
- Peptide MIC during treatment with antibiotic (A. baumannii [8]; vancomycin […] (Conc./MIC 1/4)): 0.25 µg/mL
- Peptide MIC during treatment with antibiotic (A. baumannii [8]; vancomycin […] (Conc./MIC 1/8)): 2 µg/mL
- Minimal inhibitory concentration MIC (MDRAB 12035 [9]): 16 µg/mL (≈ 6.62 µM)
- Peptide MIC, peptide alone (MDRAB 12035 [9]): 16 µg/mL
- Minimal inhibitory concentration MIC (A. baumannii [10]): 16 µg/mL (≈ 6.62 µM)
- Peptide MIC, peptide alone (A. baumannii [10]): 16 µg/mL
- Antibacterial activity relative to PapMA-1 (A. baumannii [10]; A. baumannii and antibiotic-resistant strains thereof): 4 times
- Minimal inhibitory concentration MIC (P. aeruginosa): 16 µg/mL (≈ 6.62 µM)
